Source: ChEMBL document CHEMBL4052775, “Design, synthesis and in vitro anti-mycobacterial evaluation of gatifloxacin-1H-1,2,3-triazole-isatin hybrids” (Bioorg Med Chem Lett, 2017)
Values after ≈ are worked out from the molar mass of the structure shown.

Tested on: Mycobacterium tuberculosis
Assay: Antimycobacterial activity against isoniazid/rifampicin/ethambutol-resistant Mycobacterium tuberculosis 09710 by two fold dilution method
Type: functional

Row | SMILES | MIC
1 | COc1c(N2CCNC(C)C2)c(F)cc2c(=O)c(C(=O)O)cn(C3CC3)c12 (stereo not drawn) [GATIFLOXACIN] | 1 µg/mL (≈ 2.66 µM)
2 | NNC(=O)c1ccncc1 [ISONIAZID] | > 128 µg/mL
3 | CO[C@H]1/C=C/O[C@@]2(C)Oc3c(C)c(O)c4c(O)c(c(/C=N/N5CCN(C)CC5)c(O)c4c3C2=O)NC(=O)/C(C)=C\C=C\[C@H](C)[C@H](O)[C@@H](C)[C@@H](O)[C@@H](C)[C@H](OC(C)=O)[C@@H]1C [RIFAMPIN] | 32 µg/mL (≈ 38.9 µM)
